These results are taken from US20250009901A1, “COMPOSITION COMPRISING A COMBINATION OF IMMUNE CHECKPOINT INHIBITOR AND ANTIBODY-AMATOXIN CONJUGATE FOR USE IN CANCER THERAPY” (Heidelberg Pharma Research GmbH, priority 2020, published 2025).

Assay [1] relates to CD79b-positive cell line BJAB. Kind of assay: Calreticulin measurement (ICD marker), flow cytometry. Format: cell-based, human. The settings on record: Amanitin 100 nM, conjugates 50 nM antibody, 24, 48, 72 h post-treatment, vs media only. On the procedure:
(§1) The Her2-positive cell line BT474 is a human breast cancer cell line. The CD79b-positive cell line BJAB is a human Burkitt lymphoma-derived B cell line.
(§2) Cells of the Her2-positive cell line BT474 and of the CD79b-positive cell line BJAB, respectively, were plated at 8×10^4 cells per well in 100 μL of media. Flat bottom or U-bottom plates were used for BT474 or BJAB cells, respectively. The following day, media was changed. […] Then, cells were treated with media alone, Maytansine (100 nM), Amanitin (100 nM), Anti-HER2-Amanitin conjugate (50 nM antibody), or Anti-CD79b-Amanitin conjugate (50 nM antibody) for 16-72 h.
(§3) Cells were assayed at 24, 48, and 72 h post-treatment. The adherent BT474 cells were lifted with a solution of highly purified, recombinant cell-dissociation enzymes (TrypLE, Thermo-Fisher) for 2 min. at 37° C. Both BT474 and BJAB cells were washed with PBS/2% FBS and then fixed in 0.5% paraformaldehyde for 5 min. After washing twice with cold PBS/2% FBS, cells were incubated for 5 min. with an Fc receptor binding inhibitor (FC block, eBioscience), blocking Fc receptor-mediated non-specific binding, followed by 30-min. incubation with Anti-Calreticulin-FITC (Abcam) or isotype control-FITC (Abcam). […] Propidium iodide (PI) was added, and samples were analyzed by flow cytometry on a FACSCanto instrument (Becton-Dickinson) using FACS Diva software.
In general terms: In flow cytometry, cells or beads pass a laser one at a time.

Assay [2] concerns Her2-positive cell line BT474. The description is as above. It is filed as cell-based, human. The following applies: Amanitin 100 nM, conjugates 50 nM antibody, 24, 48, 72 h post-treatment, vs media only. On the procedure:
as §1, §2, §3

Assay [3] has as its system CD79b-positive cell line BJAB. The assay is described as follows: Extracellular HMGB1 measurement (ICD marker), ELISA. Format: cell-based, human. The following applies: Amanitin 100 nM, conjugates 50 nM antibody, 24, 48, 72 h post-treatment, vs media only. On the procedure:
as §1, §2
(§4) Culture media was collected at 24, 48, and 72 h post-treatment. Analytes were captured on a Nunc Maxisorp 96-well plate coated at pH 9 with 1 μg/mL Anti-HMGB1 antibody (clone 1D5, Sigma), and plates were blocked with casein buffer (ThermoFisher). A standard curve was generated using recombinant human HMGB1 protein (R&D Systems) added to culture media that had been incubated at 37° C./5% CO2 for the same number of days as the experimental samples. This step had the effect of normalizing background signals observed in fresh culture media. […] After 30 min, the plate was washed with PBS/0.1% Tween-20, and bound secondary antibody was detected using Ultra TMB (Thermo Fisher); signals were read on a Molecular Devices Spectra Max M5 plate reader. […]
(In general: An ELISA detects its analyte on a solid surface through an enzyme-linked reagent.)

Assay [4] deals with Her2-positive cell line BT474. The assay is described as above. It is filed as cell-based, human. The following applies: Amanitin 100 nM, conjugates 50 nM antibody, 24, 48, 72 h post-treatment, vs media only. As to the method: as §1, §2, §4
Assay [5] has as its system CD79b-positive cell line BJAB. Kind of assay: Extracellular ATP measurement (ICD marker). It is filed as cell-based, human. The settings on record: Amanitin 100 nM, conjugates 50 nM antibody, 16, 40, 64 h post-treatment, vs media only. As to the method: as §1, §2
(§5) At 16, 40, and 64 h post-treatment, culture media was transferred to reaction tubes (Eppendorf) and centrifuged gently. Extracellular ATP concentrations were determined by use of the ENLITEN ATP Assay (Promega). Chemiluminescence was measured on a SpectraMax ME chemiluminescence reader (Molecular Devices).

Assay [6] relates to Her2-positive cell line BT474. Kind of assay: Extracellular ATP measurement (ICD marker). The settings on record: Amanitin 100 nM, conjugates 50 nM antibody, 16, 40, 64 h post-treatment, vs media only. It is filed as cell-based, human. On the procedure:
as §1, §2, §5

For a further assay, the target named is RNA-polymerase II (Homo sapiens, UniProt P24928). The following applies: read-out: KD of the complex between amanitin and RNA-polymerase II; cited from earlier work.
The test system of assay [7] is CD19-positive Raji cells (human Burkitt lymphoma). The assay is described as follows: Raji xenograft mouse model with human PBMCs, ATAC and Avelumab (first Example 4, FIG. 5). It is filed as in vivo, mice. On the procedure:
FIG. 5. Synergistic action of Avelumab and Anti-CD19-Amatoxin conjugate in the presence of peripheral blood mononuclear cells (PBMCs). Results of anti-tumoral studies using anti-PD-L1 antibody Avelumab (20 mg/kg, i.v., days 0, 3, 6, 8, 10, 13), or anti-CD19-amatoxin conjugate (ATAC, 0.1 and 0.3 mg/kg, respectively; single dose i.v. day 0), or a combination of Avelumab (20 mg/kg) and ATAC (0.1 and 0.3 mg/kg, respectively), in vivo in a Raji xenograft mice model system. Tumor volume was assessed at various time points after tumor cell inoculation.
The cytotoxic activity of the combination comprising an ICI and an ATAC has been assessed by use of a tumor mouse model in vivo. The study consisted of 6 experimental groups with 12 animals each. CD19-positive Raji cells (human Burkitt lymphoma, DSMZ) were premixed with human peripheral blood mononuclear cells (PBMCs, German Red Cross) and inoculated subcutaneously on study day 0. […] Tumor volumes were measured twice per week by calliper measurements and body weights were determined in parallel. […]
(In xenograft studies the graft and the host belong to different species.)

In general, Kd refers to the constant that tells how readily two partners part at equilibrium.

Regarding Amanitin, the “cell surface exposure of calreticulin (CRT)” value in assay [1] and in assay [2] was “did not induce” each time. Also, the HMGB1 release result in assay [3] and in assay [4] was “did not induce” each time. In addition, the ATP secretion result in assay [5] and in assay [6] was “did not induce” in each case. Moreover, the dissociation constant Kd at RNA-polymerase II was 3 nM.

Avelumab: PD-L1-specific antibody: the “Reduction of the tumor volumes as compared to the control group (PBS), single agents compared with each other” value in assay [7] (Avelumab 20 mg/kg alone, ATAC 0.1 mg/kg alone) is listed as “comparable”. Moreover, the “Mean TV (tumor volume)” value in assay [7] (day 31 post tumor cell inoculation, Avelumab 20 mg/kg i.v. days 0, 3, 6, 8, 10, 13) came to 353.1 mm^3.
